Data set [1] addresses T1, human NPFFR1 (hNPFFR1) receptor (Homo sapiens, UniProt Q9GZQ6).
T1 construct: expressed in transfected cells; host or cells: HEK-293 T cells, transient co-transfection with polyethylenimine
Kind of data set: Human NPFFR1 evaluation using BRET biosensors (antagonist IC50). It counts as cell-based. Particulars: hNPFFR1 transiently over-expressed in HEK-293 T cells; BRET signal; stimulation by EC80 RFRP-3. Here is the method: Compounds of the present invention were tested successively for their agonist and antagonist activities on human NPFFR1 (hNPFFR1) receptor transiently over-expressed in HEK-293 T cells. Compounds exert agonist activity if, by themselves in absence of neuropeptide RFRP-3 (also named NPVF) they activate hNPFFR1; and they exert antagonist activity if they decrease the action of RFRP-3 on the receptor.
The assay used to measure compound activity is based on BRET (Bioluminescence Resonance Energy Transfer) biosensors and is designed to monitor the plasma membrane translocation of protein that interacts with specific Ga subunit. The specific effector (luciferase tagged: BRET donor) recruited at the membrane will be in close proximity to a plasma membrane anchor (GFP tagged: BRET acceptor) to induce a BRET signal. Biosensors are described in the patent application WO 2016/041093 A1 (Biosensors for monitoring biomolecule localization and trafficking in cells).
HEK-293 T cells are maintained in Dulbecco's Modified Eagle's Medium supplemented with 10% Foetal Calf Serum, 1% Penicillin/Streptomycin at 37° C./5% CO2.
Cells are co-transfected using polyethylenimine (25 kDa linear) with four DNA plasmids encoding: hNPFFR1, GαoB, a Gi family specific intracellular effector fused to luciferase (BRET donor), a plasma membrane effector fused to GFP (BRET acceptor). After transfection, cells are cultured for 48 h at 37° C./5% CO2.
Receptor activity is detected by changes in BRET signal.
On the day of the assay, cells are detached using trypsin 0.05%, resuspended in assay buffer (1.8 mM CaCl2, 1 mM MgCl2, 2.7 mM KCl, 137 mM NaCl, 0.4 mM NaH2PO4, 5.5 mM D-Glucose, 11.9 mM NaHCO3, 25 mM Hepes) and seeded in 384 well plate at a density of 20,000 cells per well. Then, plates are equilibrated 3.5 hours at 37° C. before adding compounds.
Compounds and luciferase substrate are added to the cells using an automated device (Freedom Evo®, Tecan) and BRET readings are collected on EnVision (PerkinElmer) with specific filters (410 nm BW 80 nm, 515 nm BW 30 nm).
Agonist and antagonist activities of compounds are consecutively evaluated on the same cell plate. Agonist activity is first measured after 10 minutes incubation with compound alone on the cells. Then, cells are stimulated by an EC80 RFRP-3 concentration and luminescence is recorded for additional 10 minutes. EC80 RFRP-3 concentration is the concentration giving 80% of the maximal RFRP-3 response. Agonist or antagonist activities are evaluated in comparison to basal signals evoked by assay buffer or EC80 RFRP-3 alone, respectively.
For IC50 determination, a dose-response test is performed using 20 concentrations (ranging over 6 logs) of each compound. Dose-response curves are fitted using the sigmoidal dose-response (variable slope) analysis in GraphPad Prism software (GraphPad Software) and IC50 of antagonist activity is calculated. Dose-response experiments are performed in duplicate, in two independent experiments.
(BRET reads energy transfer from a luciferase to a nearby fluorophore.)

Where a name gives a salt, the structure may show the parent alone.

A word on the melting point: it is the temperature of the solid-liquid transition. As a reminder, the IC50 is the concentration that inhibits the measured activity by half.

T1 sequence (Q9GZQ6 whole entry): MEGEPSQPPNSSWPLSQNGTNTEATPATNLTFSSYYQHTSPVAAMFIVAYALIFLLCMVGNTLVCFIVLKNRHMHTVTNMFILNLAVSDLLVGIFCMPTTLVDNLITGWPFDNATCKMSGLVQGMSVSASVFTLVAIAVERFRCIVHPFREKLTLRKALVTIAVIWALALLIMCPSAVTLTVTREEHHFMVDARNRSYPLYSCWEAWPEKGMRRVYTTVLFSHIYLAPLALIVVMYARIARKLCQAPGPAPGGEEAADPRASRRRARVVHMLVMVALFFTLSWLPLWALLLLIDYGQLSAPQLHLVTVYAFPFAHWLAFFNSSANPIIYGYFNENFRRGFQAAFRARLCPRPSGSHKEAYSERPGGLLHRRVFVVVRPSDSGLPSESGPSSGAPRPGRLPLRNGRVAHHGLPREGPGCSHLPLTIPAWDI

The compound `CCc1nc(N)ccc1-c1cccc2ccc(C(=O)N3CCCC3)nc12.Cl` [Example 141, (8-(6-amino-2-ethylpyridin-3-yl)quinolin-2-yl)(pyrrolidin-1-yl)methanone] registered a melting point of 100 to 125 °C. Also, in data set [1], the IC50 was under 100 nM.

As for `CC(C)(C)OC(=O)n1cc(-c2ccc(N)nc2N)c2ccccc21` [Example 17, Tert-butyl 3-(2,6-diamino-3-pyridyl)indole-1-carboxylate], the melting point was in the range of 150 to 154 °C. Also, in data set [1], the IC50 is over 1000 nM.

`Cl.Nc1ccc(-c2cccc3c2OCCC3)c(N)n1` [Example 37, 3-Chroman-8-yl-pyridine-2,6-diamine] yielded a melting point of 110 to 124 °C. The compound also gave an IC50 in data set [1] of under 100 nM.

In turn, `CCc1nc(N)ccc1-c1cccc2c1N(C)C(=O)CC2` [Example 157, 8-(6-amino-2-ethylpyridin-3-yl)-1-methyl-3,4-dihydroquinolin-2(1H)-one] returned an IC50 in data set [1] of over 1000 nM.

As for `CCc1nc(N)ccc1-c1cccc2ccc(=O)[nH]c12.Cl` [Example 154, 8-(6-amino-2-ethylpyridin-3-yl)quinolin-2(1H)-one], the melting point was over 250 °C. In data set [1], this compound had an IC50 of 100 to 1000 nM.

For `Cl.Nc1ccc(-c2cccc3scnc23)c(N)n1` [Example 30, 3-(1,3-Benzothiazol-4-yl)pyridine-2,6-diamine], the melting point is over 250 °C. This compound yielded an IC50 in data set [1] of 100 to 1000 nM.

For the compound `Cl.Cn1ncc2cccc(-c3ccc(N)nc3N)c21` [Example 26, 3-(1-Methylindazol-7-yl)pyridine-2,6-diamine], the melting point lay within 198 to 204 °C. In data set [1], this compound returned an IC50 of 100 to 1000 nM.

Compound `CCc1nc(N)ccc1-c1cccc2ccc(C(=O)N(C)C)nc12` (as salt: hydrochloride) [Example 140, 8-(6-amino-2-ethylpyridin-3-yl)-N,N-dimethylquinoline-2-carboxamide] gave a melting point of 103 to 113 °C.

For `Nc1ccc(-c2cncc3ccccc23)c(N)n1` [Example 36, 3-Isoquinolin-4-yl-pyridine-2,6-diamine], the melting point fell in the range of 180 to 185 °C. The same compound displayed an IC50 in data set [1] of over 1000 nM.

For `CCc1nc(N)ccc1-c1c(C#N)ccc2cccnc12` [Example 153, 8-(6-amino-2-ethylpyridin-3-yl)quinoline-7-carbonitrile], the IC50 in data set [1] fell in the range of 100 to 1000 nM.

The compound `CCc1nc(N)ccc1-c1cccc2ccc(C(=O)N(C)C)nc12` [Example 140, 8-(6-amino-2-ethylpyridin-3-yl)-N,N-dimethylquinoline-2-carboxamide] showed an IC50 in data set [1] of 100 to 1000 nM.

`CCc1nc(N)ccc1-c1cccc2ccc(=O)n(C)c12.Cl` [Example 156, 8-(6-amino-2-ethylpyridin-3-yl)-1-methylquinolin-2(1H)-one] gave a melting point of 132 to 145 °C. This compound also had an IC50 in data set [1] of over 1000 nM.

Consider `Cl.Nc1ccc(-c2cccc3ccncc23)c(N)n1` [Example 32, 3-Isoquinolin-8-yl-pyridine-2,6-diamine], for which the melting point lay in the range of 77 to 88 °C. Further, the IC50 in data set [1] was under 100 nM.

Take `Cl.Nc1ccc(-c2csc3ccccc23)c(C2CC2)n1` [Example 13, 5-Benzo[b]thiophen-3-yl-6-cyclopropyl-pyridin-2-ylamine]: the melting point lay in the range of 210 to 220 °C. In data set [1], this compound returned an IC50 of 100 to 1000 nM.

Consider `CCc1nc(N)ccc1-c1c(F)ccc2cc(-c3ccccc3)cnc12.Cl` [Example 107, 6-ethyl-5-(7-fluoro-3-phenylquinolin-8-yl)pyridin-2-amine], for which the melting point is over 250 °C. In data set [1], this compound had an IC50 of 100 to 1000 nM.

`Cl.Nc1ccc(-c2cccc3ccoc23)c(N)n1` [Example 50, 3-(benzofuran-7-yl)pyridine-2,6-diamine] registered a melting point of over 250 °C. In addition, in data set [1], the IC50 is 100 to 1000 nM.

`CC(C)Cc1nc(N)ccc1-c1c(F)ccc2cccnc12.Cl` [Example 70, 5-(7-fluoroquinolin-8-yl)-6-isobutylpyridin-2-amine] returned a melting point of 130 to 170 °C. In data set [1], the IC50 was under 100 nM.

In turn, `CCc1nc(N)ccc1-c1cccc2sccc12` [Example 78, 5-(benzo[b]thiophen-4-yl)-6-ethylpyridin-2-amine] had an IC50 in data set [1] of 100 to 1000 nM.

Turning to `CCc1nc(N)ccc1-c1c(F)ccc2ccc(N(CC)C(C)C)nc12.Cl`, the melting point was in the range of 214 to 229 °C.

In data set [1], `CCc1nc(N)ccc1-c1c(F)ccc2cc(Cl)cnc12` [Example 146, 5-(3-chloro-7-fluoroquinolin-8-yl)-6-ethylpyridin-2-amine] returned an IC50 of under 100 nM.

Compound `CCc1nc(N)ccc1-c1cccc2ccc(OCCN3CCOCC3)nc12` [Example 130, 6-ethyl-5-(2-(2-morpholinoethoxy)quinolin-8-yl)pyridin-2-amine] gave a half-inhibitory concentration (IC50) in data set [1] of 100 to 1000 nM.

For the compound `CCc1nc(N)ccc1-c1c(F)cc(F)c2cc(Cl)cnc12` [Example 148, 5-(3-chloro-5,7-difluoroquinolin-8-yl)-6-ethylpyridin-2-amine], the concentration for half-maximal inhibition (IC50) in data set [1] is under 100 nM.

As for `Nc1ccc(-c2c(F)cc(F)c3cccnc23)c(N)n1` [Example 59, 3-(5,7-difluoroquinolin-8-yl)pyridine-2,6-diamine], in data set [1], the IC50 was under 100 nM.

Consider `CCc1nc(N)ccc1-c1cccc2ccc(-c3cccnc3)nc12` [Example 117, 6-ethyl-5-(2-(pyridin-3-yl)quinolin-8-yl)pyridin-2-amine], for which, in data set [1], the IC50 is under 100 nM.

`CCc1nc(N)ccc1-c1c(F)ccc2ccc(N(CC)C3CCCCC3)nc12.Cl` came in with a melting point of 160 to 210 °C.

In turn, `CCc1nc(N)ccc1-c1c(F)ccc2cc(Br)cnc12` [Example 151, 5-(3-bromo-7-fluoroquinolin-8-yl)-6-ethylpyridin-2-amine] returned an IC50 in data set [1] of under 100 nM.

`CCc1nc(N)ccc1-c1c(Cl)ccc2cc(Cl)cnc12` [Example 147, 5-(3,7-dichloroquinolin-8-yl)-6-ethylpyridin-2-amine] had an IC50 in data set [1] of under 100 nM.

Turning to `Nc1ccc(-c2cccc3cccnc23)c(N)n1` [Example 31, 3-(8-quinolyl)pyridine-2,6-diamine], the IC50 in data set [1] was under 100 nM.

With `CCc1nc(N)ccc1-c1cccc2ccc(-c3cncnc3)nc12` [Example 124, 6-ethyl-5-(2-(pyrimidin-5-yl)quinolin-8-yl)pyridin-2-amine], the IC50 in data set [1] is under 100 nM.

In the case of `CCc1nc(N)ccc1-c1c(F)c(F)cc2cc(Cl)cnc12` [Example 149, 5-(3-chloro-6,7-difluoroquinolin-8-yl)-6-ethylpyridin-2-amine], the IC50 in data set [1] is under 100 nM.

The compound `CCc1nc(N)ccc1-c1c(Cl)ccc2cc(F)cnc12` [Example 144, 5-(7-chloro-3-fluoroquinolin-8-yl)-6-ethylpyridin-2-amine] displayed an IC50 in data set [1] of under 100 nM.

`CCc1nc(N)ccc1-c1c(Cl)ccc2cccnc12` [Example 110, 5-(7-chloroquinolin-8-yl)-6-ethylpyridin-2-amine] showed an IC50 in data set [1] of under 100 nM.

In data set [1], `CCc1nc(N)ccc1-c1cccc2ccc(-c3ccccc3)nc12` [Example 116, 6-ethyl-5-(2-phenylquinolin-8-yl)pyridin-2-amine] returned an IC50 of under 100 nM.

Regarding `CCc1nc(N)ccc1-c1c(Cl)ccc2ccc(O)nc12` [Example 160, 8-(6-amino-2-ethylpyridin-3-yl)-7-chloroquinolin-2(1H)-one], the IC50 in data set [1] was under 100 nM.

`Nc1ccc(-c2c(Cl)ccc3ccc(O)nc23)c(N)n1` [Example 63, 8-(2,6-diaminopyridin-3-yl)-7-chloroquinolin-2-ol] displayed an IC50 in data set [1] of under 100 nM.

In turn, `CCc1nc(N)ccc1-c1cccc2ccoc12` [Example 79, 5-(benzofuran-7-yl)-6-ethylpyridin-2-amine] came in with an IC50 in data set [1] of 100 to 1000 nM.

In turn, `CCc1nc(N)ccc1-c1cccc2ccc(C(=O)NC3COC3)nc12` [Example 175, 8-(6-amino-2-ethylpyridin-3-yl)-N-(oxetan-3-yl)quinoline-2-carboxamide] had a melting point of 156 to 162 °C.

As to `Nc1ccc(-c2c(F)ccc3cc(Cl)cnc23)c(N)n1` [Example 60, 3-(3-chloro-7-fluoroquinolin-8-yl)pyridine-2,6-diamine], in data set [1], the IC50 is under 100 nM.

Source of the values: US20220298135A1, “5-HETEROARYL-PYRIDIN-2-AMINE COMPOUNDS AS NEUROPEPTIDE FF RECEPTOR ANTAGONISTS” (Domain Therapeutics, priority 2019, published 2022).
